In ChEMBL document CHEMBL1201861, “Genomics of Drug Sensitity in Cancer screening data, Wellcome Trust Sanger Institute”:
Where “and” joins values, the source holds several entries; their conditions need not be identical. Equal values may be shown once.

Key:
WSU-NHL = assay: cells; type: functional, cell-based; conditions: Homo sapiens;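 further: growth inhibition of human WSU-NHL cells, read out with a cell viability assay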
Description: SANGER: Inhibition of human WSU-NHL cell growth in a cell viability assay.

NCI-H1048 = assay: cells; type: functional, cell-based; conditions: Homo sapiens;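 further: growth inhibition of human NCI-H1048 cells, read out with a cell viability assay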
Description: SANGER: Inhibition of human NCI-H1048 cell growth in a cell viability assay.

RL = assay: cells; type: functional, cell-based; conditions: Homo sapiens
Description: SANGER: Inhibition of human RL cell growth in a cell viability assay.

LC4-1 = assay: cells; type: functional, cell-based; conditions: Homo sapiens;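 further: growth inhibition of LC4-1 cells, read out with a cell viability assay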
Description: SANGER: Inhibition of human LC4-1 cell growth in a cell viability assay.

MHH-CALL-2 = assay: cells; type: functional, cell-based; conditions: Homo sapiens;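 further: growth inhibition of the cell line, read out in a cell viability assay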
Description: SANGER: Inhibition of human MHH-CALL-2 cell growth in a cell viability assay.

NCI-H748 = assay: cells; type: functional, cell-based; conditions: Homo sapiens;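 further: growth inhibition of NCI-H748 cells, measured by a cell viability assay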
Description: SANGER: Inhibition of human NCI-H748 cell growth in a cell viability assay.

BC-3 = assay: cells; type: functional, cell-based; conditions: Homo sapiens;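 further: cell viability assay measuring growth inhibition of human BC-3 cells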
Description: SANGER: Inhibition of human BC-3 cell growth in a cell viability assay.

BL-41 = assay: cells; type: functional, cell-based; conditions: Homo sapiens;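 further: growth inhibition of human BL-41 cells, read out with a cell viability assay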
Description: SANGER: Inhibition of human BL-41 cell growth in a cell viability assay.

MONO-MAC-6 = assay: cells; type: functional, cell-based; conditions: Homo sapiens;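 further: cell viability assay measuring growth inhibition of human MONO-MAC-6 cells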
Description: SANGER: Inhibition of human MONO-MAC-6 cell growth in a cell viability assay.

NCI-H64 = assay: cells; type: functional, cell-based; conditions: Homo sapiens;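 further: growth inhibition of NCI-H64 cells, read out with a cell viability assay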
Description: SANGER: Inhibition of human NCI-H64 cell growth in a cell viability assay.

IST-SL2 = assay: cells; type: functional, cell-based; conditions: Homo sapiens;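 further: growth inhibition of human IST-SL2 cells, read out by a cell viability assay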
Description: SANGER: Inhibition of human IST-SL2 cell growth in a cell viability assay.

BL-70 = assay: SANGER: Inhibition of human BL-70 cell growth in a cell viability assay.; type: functional, cell-based
A549 = assay: cells; type: functional, cell-based; conditions: Homo sapiens;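 further: growth inhibition of A549 cells, read out with a cell viability assay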
Description: SANGER: Inhibition of human A549 cell growth in a cell viability assay.

RPMI-6666 = assay: cells; type: functional, cell-based; conditions: Homo sapiens
Description: SANGER: Inhibition of human RPMI-6666 cell growth in a cell viability assay.

SNU-423 = assay: cells; type: functional, cell-based, Homo sapiens
Description: SANGER: Inhibition of human SNU-423 cell growth in a cell viability assay.

EVSA-T = assay: cells; type: functional, cell-based, Homo sapiens;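 further: growth inhibition of EVSA-T cells, read out with a cell viability assay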
Description: SANGER: Inhibition of human EVSA-T cell growth in a cell viability assay.

NCI-H1882 = assay: cells; type: functional, cell-based; conditions: Homo sapiens;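 further: growth inhibition of the cell line, determined with a viability assay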
Description: SANGER: Inhibition of human NCI-H1882 cell growth in a cell viability assay.

CMK = assay: cells; type: functional, cell-based; conditions: Homo sapiens;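 further: growth inhibition of CMK cells, read out as cell viability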
Description: SANGER: Inhibition of human CMK cell growth in a cell viability assay.

SIMA = assay: cells; type: functional, cell-based, Homo sapiens;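 further: growth inhibition of SIMA cells, measured with a cell viability readout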
Description: SANGER: Inhibition of human SIMA cell growth in a cell viability assay.

LC-1F = assay: cells; type: functional, cell-based; conditions: Homo sapiens;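 further: growth inhibition of human LC-1F cells, read out with a cell viability assay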
Description: SANGER: Inhibition of human LC-1F cell growth in a cell viability assay.

CESS = assay: SANGER: Inhibition of human CESS cell growth in a cell viability assay.; type: functional, cell-based
NCI-H522 = assay: cells; type: functional, cell-based, Homo sapiens;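 further: cell viability assay measuring growth inhibition of human NCI-H522 cells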
Description: SANGER: Inhibition of human NCI-H522 cell growth in a cell viability assay.

NALM-6 = assay: cells; type: functional, cell-based; conditions: Homo sapiens;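 further: growth inhibition of NALM-6 cells, read out with a cell viability assay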
Description: SANGER: Inhibition of human NALM-6 cell growth in a cell viability assay.

PF-382 = assay: cells; type: functional, cell-based; conditions: Homo sapiens
Description: SANGER: Inhibition of human PF-382 cell growth in a cell viability assay.

NB1 = assay: cells; type: functional, cell-based; conditions: Homo sapiens;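 further: reduction of NB1 cell proliferation, read out with a viability assay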
Description: SANGER: Inhibition of human NB1 cell growth in a cell viability assay.

NCI-H1522 = assay: cells; type: functional, cell-based; conditions: Homo sapiens;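 further: growth inhibition of NCI-H1522 cells, read out with a cell viability assay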
Description: SANGER: Inhibition of human NCI-H1522 cell growth in a cell viability assay.

NCI-H1417 = assay: cells; type: functional, cell-based; conditions: Homo sapiens;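 further: human NCI-H1417 cells, growth inhibition determined with a cell viability readout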
Description: SANGER: Inhibition of human NCI-H1417 cell growth in a cell viability assay.

BT-549 = assay: cells; type: functional, cell-based; conditions: Homo sapiens
Description: SANGER: Inhibition of human BT-549 cell growth in a cell viability assay.

SIG-M5 = assay: cells; type: functional, cell-based; conditions: Homo sapiens;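 further: cell viability assay read-out, measuring how strongly growth of cultured human SIG-M5 cells is inhibited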
Description: SANGER: Inhibition of human SIG-M5 cell growth in a cell viability assay.

EB2 = assay: cells; type: functional, cell-based; conditions: Homo sapiens;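 further: growth inhibition of EB2 cells, read out with a cell viability assay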
Description: SANGER: Inhibition of human EB2 cell growth in a cell viability assay.

U-698-M = assay: cells; type: functional, cell-based; conditions: Homo sapiens
Description: SANGER: Inhibition of human U-698-M cell growth in a cell viability assay.

DMS-153 = assay: cells; type: functional, cell-based; conditions: Homo sapiens
Description: SANGER: Inhibition of human DMS-153 cell growth in a cell viability assay.

HT55 = assay: cells; type: functional, cell-based, Homo sapiens;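 further: cell viability readout measuring growth inhibition of human HT55 cells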
Description: SANGER: Inhibition of human HT55 cell growth in a cell viability assay.

EW-22 = assay: cells; type: functional, cell-based; conditions: Homo sapiens;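 further: growth inhibition of the EW-22 cell line, measured with a cell viability readout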
Description: SANGER: Inhibition of human EW-22 cell growth in a cell viability assay.

P31-FUJ = assay: cells; type: functional, cell-based; conditions: Homo sapiens;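 further: growth inhibition of P31-FUJ cells, read out with a viability assay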
Description: SANGER: Inhibition of human P31-FUJ cell growth in a cell viability assay.

SNU-16 = assay: cells; type: functional, cell-based; conditions: Homo sapiens;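 further: growth inhibition of human SNU-16 cells, determined with a cell viability readout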
Description: SANGER: Inhibition of human NCI-SNU-16 cell growth in a cell viability assay.

SK-MM-2 = assay: cells; type: functional, cell-based; conditions: Homo sapiens;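 further: growth inhibition of human SK-MM-2 cells, read out with a cell viability assay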
Description: SANGER: Inhibition of human SK-MM-2 cell growth in a cell viability assay.

NCI-H2171 = assay: cells; type: functional, cell-based; conditions: Homo sapiens;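 further: growth inhibition of human NCI-H2171 cells, read out by a cell viability assay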
Description: SANGER: Inhibition of human NCI-H2171 cell growth in a cell viability assay.

RPMI 8402 = assay: SANGER: Inhibition of human RPMI-8402 cell growth in a cell viability assay.; type: functional, cell-based
CAL-148 = assay: cells; type: functional, cell-based; conditions: Homo sapiens
Description: SANGER: Inhibition of human CAL-148 cell growth in a cell viability assay.

LP-1 = assay: cells; type: functional, cell-based; conditions: Homo sapiens;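 further: growth inhibition of human LP-1 cells, with the read-out taken from a cell viability assay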
Description: SANGER: Inhibition of human LP-1 cell growth in a cell viability assay.

TALL-1 = assay: cells; type: functional, cell-based; conditions: Homo sapiens;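 further: growth inhibition of cultured human TALL-1 cells, read out by a cell viability assay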
Description: SANGER: Inhibition of human TALL-1 cell growth in a cell viability assay.

MC-CAR = assay: cells; type: functional, cell-based; conditions: Homo sapiens;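 further: growth inhibition of the human MC-CAR cell line, read out by a cell viability assay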
Description: SANGER: Inhibition of human MC-CAR cell growth in a cell viability assay.

NCI-H719 = assay: cells; type: functional, cell-based; conditions: Homo sapiens;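 further: growth inhibition of the cultured cell line, read out with a viability assay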
Description: SANGER: Inhibition of human NCI-H719 cell growth in a cell viability assay.

SW900 = assay: cells; type: functional, cell-based; conditions: Homo sapiens;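 further: IC50 is the concentration that inhibits SW900 cell growth, measured by a cell viability assay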
Description: SANGER: Inhibition of human SW900 cell growth in a cell viability assay.

UACC-812 = assay: cells; type: functional, cell-based; conditions: Homo sapiens
Description: SANGER: Inhibition of human UACC-812 cell growth in a cell viability assay.

CHP-126 = assay: cells; type: functional, cell-based; conditions: Homo sapiens
Description: SANGER: Inhibition of human CHP-126 cell growth in a cell viability assay.

NCI-H2196 = assay: cells; type: functional, cell-based; conditions: Homo sapiens;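 further: cell viability assay used as the readout of growth inhibition in NCI-H2196 cells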
Description: SANGER: Inhibition of human NCI-H2196 cell growth in a cell viability assay.

SJRH30 = assay: cells; type: functional, cell-based; conditions: Homo sapiens;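 further: growth inhibition of human SJRH30 cells, read out with a cell viability assay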
Description: SANGER: Inhibition of human SJRH30 cell growth in a cell viability assay.

HSC-4 = assay: cells; type: functional, cell-based, Homo sapiens;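 further: growth inhibition of human HSC-4 cells, read out with a cell viability assay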
Description: SANGER: Inhibition of human HSC-4 cell growth in a cell viability assay.

TE-441-T = assay: cells; type: functional, cell-based; conditions: Homo sapiens
Description: SANGER: Inhibition of human TE-441-T cell growth in a cell viability assay.

SW 1116 = assay: cells; type: functional, cell-based; conditions: Homo sapiens;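 further: growth inhibition of SW1116 cells, read out with a cell viability assay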
Description: SANGER: Inhibition of human SW1116 cell growth in a cell viability assay.

NCCIT = assay: SANGER: Inhibition of human NCCIT cell growth in a cell viability assay.; type: functional, cell-based
NCI-H460 = assay: cells; type: functional, cell-based, Homo sapiens;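 further: cell viability assay scoring growth inhibition of human NCI-H460 cells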
Description: SANGER: Inhibition of human NCI-H460 cell growth in a cell viability assay.

NCI-H630 = assay: cells; type: functional, cell-based, Homo sapiens;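 further: growth inhibition of NCI-H630 cells, read out with a cell viability assay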
Description: SANGER: Inhibition of human NCI-H630 cell growth in a cell viability assay.

SCLC-21H = assay: cells; type: functional, cell-based; conditions: Homo sapiens;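 further: growth inhibition of cultured human SCLC-21H cells, read out with a cell viability assay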
Description: SANGER: Inhibition of human SCLC-21H cell growth in a cell viability assay.

RL95-2 = assay: cells; type: functional, cell-based; conditions: Homo sapiens;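 further: RL95-2 growth inhibition determined through a cell viability readout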
Description: SANGER: Inhibition of human RL95-2 cell growth in a cell viability assay.

TGBC11TKB = assay: cells; type: functional, cell-based; conditions: Homo sapiens;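 further: growth inhibition of human TGBC11TKB cells, measured by a cell viability assay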
Description: SANGER: Inhibition of human TGBC11TKB cell growth in a cell viability assay.

NBsusSR = assay: cells; type: functional, cell-based; conditions: Homo sapiens;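 further: growth inhibition of the human cell line, read out with a cell viability assay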
Description: SANGER: Inhibition of human NBsusSR cell growth in a cell viability assay.

BALL-1 = assay: cells; type: functional, cell-based; conditions: Homo sapiens;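 further: growth inhibition of BALL-1 cells, read out with a cell viability assay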
Description: SANGER: Inhibition of human BALL-1 cell growth in a cell viability assay.

Measured: IC50

Cc1cc([C@@H](C)Nc2ccccc2C(=O)O)c2nc(N3CCOCC3)cc(=O)n2c1 [AZD-6482]
1230 nM: NCI-H1048
4570 nM: CMK
1570 nM and > 5120 nM: SNU-423; snu-423
> 5120 nM: WSU-NHL | RL | LC4-1 | MHH-CALL-2 | NCI-H748 | BC-3 | BL-41 | MONO-MAC-6 | IST-SL2 | A549 | NCI-H1882 | SIMA; sima | LC-1F | NCI-H522; nci-h522 | PF-382 | NB1 | NCI-H1522 | NCI-H1417 | BT-549 | SIG-M5 | U-698-M | DMS-153 | HT55; Homo sapiens, HT55 | HT55; ht55 | EW-22 | P31-FUJ | SNU-16 | SK-MM-2 | NCI-H2171 | RPMI 8402 | LP-1 | TALL-1 | MC-CAR | NCI-H719 | SW900 | UACC-812 | CHP-126 | NCI-H2196 | SJRH30 | HSC-4; hsc-4 | TE-441-T | SW 1116 | NCCIT | NCI-H460; nci-h460 | NCI-H630; nci-h630 | SCLC-21H | RL95-2
4800 nM: CESS
705 nM: NALM-6
2620 nM: NCI-H64
4860 nM: BL-70
644 nM: RPMI-6666
4180 nM: CAL-148
3380 nM and > 5120 nM: EVSA-T; evsa-t
1750 nM: EB2

O=c1cc(-c2cccc3c2Sc2ccccc2S3)oc(N2CCOCC2)c1 [KU-55933]
> 10000 nM: NCI-H1048 | TGBC11TKB | A549 | SNU-423; Homo sapiens, SNU-423 | NBsusSR | NCI-H522; Homo sapiens, NCI-H522 | BT-549 | HT55; Homo sapiens, HT55 | EW-22 | BALL-1 | SW900 | SJRH30 | SW 1116 | NCI-H460; Homo sapiens, NCI-H460 | NCI-H630; Homo sapiens, NCI-H630

Cc1cnc(-c2cnc(NCCNc3ccc(C#N)cn3)nc2-c2ccc(Cl)cc2Cl)[nH]1 [LADUVIGLUSIB]
2500 nM: SNU-423; Homo sapiens, SNU-423
> 2560 nM: WSU-NHL | RL | LC4-1 | MHH-CALL-2 | NCI-H748 | BC-3 | BL-41 | MONO-MAC-6 | NCI-H64 | IST-SL2 | BL-70 | RPMI-6666 | EVSA-T; Homo sapiens, EVSA-T | NCI-H1882 | CMK | SIMA; Homo sapiens, SIMA | LC-1F | CESS | NCI-H522; Homo sapiens, NCI-H522 | NALM-6 | PF-382 | NB1 | NCI-H1522 | NCI-H1417 | SIG-M5 | EB2 | U-698-M | DMS-153 | HT55; Homo sapiens, HT55 | P31-FUJ | SNU-16 | SK-MM-2 | NCI-H2171 | RPMI 8402 | CAL-148 | LP-1 | TALL-1 | MC-CAR | NCI-H719 | UACC-812 | CHP-126 | NCI-H2196 | SJRH30 | HSC-4; Homo sapiens, HSC-4 | TE-441-T | NCCIT | NCI-H460; Homo sapiens, NCI-H460 | NCI-H630; Homo sapiens, NCI-H630 | SCLC-21H | RL95-2

CN(Cc1cnc2nc(N)nc(N)c2n1)c1ccc(C(=O)N[C@@H](CCC(=O)O)C(=O)O)cc1 [METHOTREXATE]
> 200 nM: NCI-H1048 | TGBC11TKB | A549 | SNU-423; Homo sapiens, SNU-423 | HT55; Homo sapiens, HT55 | EW-22 | BALL-1 | SW900 | HSC-4; Homo sapiens, HSC-4 | SW 1116 | NCI-H630; Homo sapiens, NCI-H630
29.6 nM: NBsusSR

CN(c1ncccc1CNc1nc(Nc2ccc3c(c2)CC(=O)N3)ncc1C(F)(F)F)S(C)(=O)=O [PF-00562271]
2420 nM: CMK
2410 nM: MONO-MAC-6
> 2560 nM: WSU-NHL | RL | LC4-1 | MHH-CALL-2 | NCI-H748 | BC-3 | BL-41 | NCI-H64 | IST-SL2 | BL-70 | RPMI-6666 | SNU-423; Homo sapiens, SNU-423 | EVSA-T; Homo sapiens, EVSA-T | NCI-H1882 | SIMA; Homo sapiens, SIMA | LC-1F | CESS | NCI-H522; Homo sapiens, NCI-H522 | NALM-6 | PF-382 | NB1 | NCI-H1522 | NCI-H1417 | EB2 | U-698-M | DMS-153 | HT55; Homo sapiens, HT55 | P31-FUJ | SNU-16 | SK-MM-2 | NCI-H2171 | RPMI 8402 | CAL-148 | LP-1 | TALL-1 | MC-CAR | NCI-H719 | UACC-812 | CHP-126 | NCI-H2196 | SJRH30 | HSC-4; Homo sapiens, HSC-4 | TE-441-T | NCCIT | NCI-H630; Homo sapiens, NCI-H630 | SCLC-21H | RL95-2
1480 nM: SIG-M5
2050 nM: NCI-H460; Homo sapiens, NCI-H460

CCC1=C[C@@H]2CN(C1)Cc1c([nH]c3ccccc13)[C@@](C(=O)OC)(c1cc3c(cc1OC)N(C)[C@H]1[C@@](O)(C(=O)OC)[C@H](OC(C)=O)[C@]4(CC)C=CCN5CC[C@]31[C@@H]54)C2 [VINORELBINE]
34.9 nM: TE-441-T
7.13 nM: RL95-2
11.7 nM: PF-382
7.19 nM: LC4-1
15.4 nM: CAL-148
6.98 nM: NCI-H460; Homo sapiens, NCI-H460
0.535 nM: NCI-H522; Homo sapiens, NCI-H522
31.1 nM: BC-3
20.6 nM: MONO-MAC-6
9.27 nM: MC-CAR
26.1 nM: NB1
17.1 nM: IST-SL2
13.7 nM: CMK
57 nM: NCI-H748
5.28 nM: BL-41
33.7 nM: WSU-NHL
5.42 nM: NCCIT
12.3 nM: RPMI 8402
5.04 nM: CESS
> 64 nM: RL | MHH-CALL-2 | EVSA-T; Homo sapiens, EVSA-T | SIMA; Homo sapiens, SIMA | NCI-H1522 | DMS-153 | HT55; Homo sapiens, HT55 | P31-FUJ | SK-MM-2 | NCI-H2171 | LP-1 | TALL-1 | NCI-H719 | UACC-812 | CHP-126 | NCI-H2196 | HSC-4; Homo sapiens, HSC-4 | SCLC-21H
45.5 nM: NCI-H630; Homo sapiens, NCI-H630
24.1 nM: NCI-H1417
6.86 nM: RPMI-6666
12.2 nM: U-698-M
38.6 nM: SNU-16
7.27 nM: NCI-H64
3.16 nM: BL-70
36.5 nM: NCI-H1882
5.94 nM: NALM-6
6.7 nM: EB2
44.8 nM: LC-1F
5.54 nM: SNU-423; Homo sapiens, SNU-423
29.3 nM: SJRH30
2.48 nM: SIG-M5
